Results taken from patent US7811605B2, “Method of formation of shape-retentive aggregates of gel particles and their uses” (ULURU Inc., priority 2002, dated 2010).

Assay: Entrapment and release of bromocresol green from particle aggregates in PBS, UV-Visible absorption
Format: physicochemical
Conditions: 1 mg dye in 2 mL Tween 80 stabilized pHEMA particles, 36 mg/mL, injected into PBS; discrete particles and 50:50 mixtures of two sizes
Procedure: Injection of a dispersion of particles with a small molecule dissolved in the suspension medium forms an aggregate that traps some of the small molecule. In a typical experiment, 1 mg of bromocresol green dye was dissolved into 2 mL of a suspension of Tween 80 stabilized pHEMA particles (725 nm in diameter) with a hydrated polymer mass of 36 mg/mL. The dispersed particles and dye were injected into a solution of phosphate buffered saline. After 10 minutes of aggregation, the solution was shaken at 10 cycles per second to insure adequate mixing. 2 mL samples of supernatant were taken and characterized by UV-Visible absorption spectroscopy. […] In both cases, most of the small molecule is released within the first 3-5 hours, however, the burst effect is smaller in the mixed aggregate system.

time within which most of the small molecule is released: 3 to 5 h
Compound: Cc1c(C2(c3cc(Br)c(O)c(Br)c3C)OS(=O)(=O)c3ccccc32)cc(Br)c(O)c1Br [bromocresol green]
